Assay: mn = molality of the nth substance listed, in mol/kg
Details: Liquid, Capillary tube (Ostwald / Ubbelohde) method

O=S(=O)([O-])[O-].[Li+].[Li+] [lithium sulfate] + O
viscosity [mPa·s]
Details | 100 kPa | 10000 kPa | 20000 kPa | 30000 kPa
298.15 K, m1 = 0.1 | 0.939 | – | – | –
298.15 K, m1 = 0.28 | 1.037 | – | – | –
298.15 K, m1 = 0.56 | 1.195 | 1.195 | 1.195 | 1.195
298.15 K, m1 = 0.885 | 1.411 | – | – | –
298.25 K, m1 = 0.28 | – | 1.035 | 1.035 | 1.036
298.35 K, m1 = 0.1 | – | 0.936 | 0.9361 | 0.9363
298.45 K, m1 = 0.885 | – | 1.404 | 1.404 | 1.404
303.15 K, m1 = 0.1 | 0.862 | – | – | –
303.15 K, m1 = 0.28 | 0.951 | – | – | –
303.15 K, m1 = 0.56 | 1.096 | – | – | –
303.15 K, m1 = 0.885 | 1.294 | – | – | –
306.19 K, m1 = 0.56 | – | 1.013 | 1.016 | 1.018
307.35 K, m1 = 0.885 | – | 1.17 | 1.173 | 1.176
307.93 K, m1 = 0.28 | – | 0.8517 | 0.8546 | 0.857
308.52 K, m1 = 0.1 | – | 0.7647 | 0.7659 | 0.7682
311.24 K, m1 = 0.56 | – | 0.9141 | 0.9168 | 0.9192
312.27 K, m1 = 0.28 | – | 0.778 | 0.7812 | 0.784
313.15 K, m1 = 0.1 | 0.707 | – | – | –
313.15 K, m1 = 0.28 | 0.778 | – | – | –
313.15 K, m1 = 0.56 | 0.891 | – | – | –
313.15 K, m1 = 0.885 | 1.054 | – | – | –
313.67 K, m1 = 0.1 | – | 0.6899 | 0.6927 | 0.6955
314.12 K, m1 = 0.885 | – | 1.016 | 1.019 | 1.023
321.55 K, m1 = 0.28 | – | 0.6508 | 0.6539 | 0.6569
322.35 K, m1 = 0.56 | – | 0.7352 | 0.7388 | 0.7422
322.55 K, m1 = 0.885 | – | 0.8649 | 0.8691 | 0.8731
323.15 K, m1 = 0.1 | 0.578 | – | – | –
323.15 K, m1 = 0.28 | 0.63 | – | – | –
323.15 K, m1 = 0.56 | 0.722 | – | – | –
323.15 K, m1 = 0.885 | 0.853 | – | – | –
324.55 K, m1 = 0.1 | – | 0.566 | 0.5689 | 0.5716
329.44 K, m1 = 0.28 | – | 0.567 | 0.57 | 0.5731
330.24 K, m1 = 0.885 | – | 0.7558 | 0.7598 | 0.7639
331.27 K, m1 = 0.56 | – | 0.6319 | 0.6354 | 0.6372
331.86 K, m1 = 0.1 | – | 0.5013 | 0.5035 | 0.5061
333.15 K, m1 = 0.1 | 0.49 | – | – | –
333.15 K, m1 = 0.28 | 0.532 | – | – | –
333.15 K, m1 = 0.56 | 0.61 | – | – | –
333.15 K, m1 = 0.885 | 0.718 | – | – | –
338.71 K, m1 = 0.28 | – | 0.4914 | 0.4942 | 0.4979
339.74 K, m1 = 0.1 | – | 0.4463 | 0.4491 | 0.452
340.72 K, m1 = 0.885 | – | 0.6414 | 0.6452 | 0.6494
340.73 K, m1 = 0.56 | – | 0.5456 | 0.5484 | 0.5514
343.15 K, m1 = 0.1 | 0.429 | – | – | –
343.15 K, m1 = 0.28 | 0.462 | – | – | –
343.15 K, m1 = 0.56 | 0.53 | – | – | –
343.15 K, m1 = 0.885 | 0.624 | – | – | –
343.35 K, m1 = 0.28 | – | 0.4594 | 0.4623 | 0.4653
347.05 K, m1 = 0.1 | – | 0.4034 | 0.4061 | 0.4088
348.15 K, m1 = 0.1 | 0.401 | – | – | –
348.15 K, m1 = 0.28 | 0.433 | – | – | –
348.15 K, m1 = 0.56 | 0.495 | – | – | –
348.15 K, m1 = 0.885 | 0.582 | – | – | –
348.95 K, m1 = 0.885 | – | 0.5714 | 0.5753 | 0.5792
349.55 K, m1 = 0.56 | – | 0.4831 | 0.4864 | 0.4897
351.04 K, m1 = 0.28 | – | 0.415 | 0.4183 | 0.4215
356.84 K, m1 = 0.1 | – | 0.3566 | 0.359 | 0.3621
358.15 K, m1 = 0.1 | 0.355 | – | – | –
358.15 K, m1 = 0.28 | 0.381 | – | – | –
358.15 K, m1 = 0.56 | 0.437 | – | – | –
358.15 K, m1 = 0.885 | 0.511 | – | – | –
359.14 K, m1 = 0.885 | – | 0.4999 | 0.5041 | 0.508
361.24 K, m1 = 0.56 | – | 0.4168 | 0.4191 | 0.4222
362.74 K, m1 = 0.28 | – | 0.3601 | 0.363 | 0.3662
365.04 K, m1 = 0.1 | – | 0.3241 | 0.3265 | 0.3291
369.72 K, m1 = 0.885 | – | 0.4415 | 0.4452 | 0.4495
372.13 K, m1 = 0.56 | – | 0.3691 | 0.3721 | 0.3752
375.75 K, m1 = 0.28 | – | 0.3127 | 0.3153 | 0.3181
378.85 K, m1 = 0.1 | – | 0.2812 | 0.2836 | 0.2862
379.05 K, m1 = 0.885 | – | 0.3993 | 0.4028 | 0.4065
383.06 K, m1 = 0.28 | – | 0.2916 | 0.2942 | 0.2974
384.05 K, m1 = 0.56 | – | 0.3274 | 0.3304 | 0.3335
384.27 K, m1 = 0.885 | – | 0.3782 | 0.382 | 0.3861
389.16 K, m1 = 0.1 | – | 0.2554 | 0.2577 | 0.2599
390.35 K, m1 = 0.56 | – | 0.3089 | 0.3124 | 0.3154
390.42 K, m1 = 0.28 | – | 0.2721 | 0.275 | 0.2784
390.72 K, m1 = 0.885 | – | 0.355 | 0.3591 | 0.3633
397.35 K, m1 = 0.885 | – | 0.3337 | 0.3371 | 0.3406
399.95 K, m1 = 0.28 | – | 0.2502 | 0.2528 | 0.2555
400.84 K, m1 = 0.1 | – | 0.2306 | 0.2331 | 0.236
401.73 K, m1 = 0.56 | – | 0.2797 | 0.2827 | 0.2855
405.24 K, m1 = 0.885 | – | 0.3115 | 0.3152 | 0.3194
409.36 K, m1 = 0.28 | – | 0.2314 | 0.234 | 0.2369
410.95 K, m1 = 0.1 | – | 0.2126 | 0.215 | 0.2192
411.05 K, m1 = 0.56 | – | 0.2584 | 0.2613 | 0.2644
415.13 K, m1 = 0.56 | – | 0.2502 | 0.2531 | 0.2564
415.76 K, m1 = 0.885 | – | 0.286 | 0.2901 | –

Source: the NIST ThermoML archive (doi:10.1021/je030177j)
